Columns and labels:
[1] = target: α3β4 (Homo sapiens, UniProt P30926+P32297); conditions: read-out: binding to α3β4 IC50; cited from earlier work
[2] = system: P rats; assay: Pretreatment with α7 NAM dehydronorketamine prior to adolescent binge-like alcohol exposure (AIE), adult EtOH consumption; assay type: in vivo, rat; conditions: for effect on deleterious effects of adolescent alcohol exposure (adult alcohol intake, weeks 1-2): males and females
Description: (§1) Subjects. The alcohol-preferring (P) rats used in the current experiments were from the standard P stock maintained by the Animal Breeding Core of the Indiana University Alcohol Research Center (IUARC). Animals used in this study were maintained in facilities fully accredited by the Association for the Assessment and Accreditation of Laboratory Animal Care. All research protocols were approved by the IUSM Institutional Animal Care and Use Committee (IUSM IACUC) and were in accordance with the guidelines of the Institutional Care and Use Committee of the National Institute on Drug Abuse, the NIH, and the Guide for the Care and Use of Laboratory Animals (2011).
(§2) Statistical Analysis. All statistical analyses followed the procedures/flowchart indicated by Keppel and Zedeck (1986). Briefly, the experiments examining the acquisition of alcohol consumption utilized the dependent measure of average weekly alcohol intake. The overall analyses were mixed factor ANOVAs with between subject factors of drug dose and EtOH exposure history (when applicable) and a within subject factor of Week. The statistical analyses surveying relapse drinking examined the average EtOH intake for the three days prior to deprivation and daily EtOH intake values following re-exposure. Post-hoc comparisons for between subject factors were performed with Tukey's b analyses. The Tukey's b post-hoc comparison is a modified Tukey post-hoc comparison that reduces the prohibitive penalty for unequal sample size. There is a single assumption of ANOVAs that cannot be violated. […] Therefore, within subject variables should not be treated like between subject variables and analyzed with forced ANOVAs and inappropriate post-hoc analyses. Proper within subject post-hoc analyses are t-tests and orthogonal contrasts (Keppel and Zeddeck, 1986). Given the general lack of understanding of orthogonal contrasts, the findings from t-test analyses are being reported. Concerns of Type I error rate inflation is eliminated by the proper reading of Rodgers (1967). Type 1 error rate inflations is Ψi (i=1, . . . , J−1), and not Bonferroni, an improper estimate. Given the effect size of the current data set there is no likelihood of Type 1 error rate inflation for any reported analyses (c.f., Rodgers and Roberts, 2012; Roberts, 2011).
Effects of pretreatment with an α7 NAM dehydronorketamine prior to binge-like exposure during adolescence on adult EtOH consumption. There were 5 treatment groups. Adolescent male (n=24) and female (n=26) P rats were used in the experiment. The AIE exposure began on PND 28. Rats were given 4 g/kg alcohol (25% v/v; gavage) every Monday, Tuesday, Thursday and Friday (4 days a week; 3 days with no alcohol exposure) from post-natal day 28-48. Control (CON) groups received an equivalent volume administration of water. In the AIE groups, rats were injected (i.p.) with 0 (saline), 10 or 50 mg/kg of the α7 nicotinic receptor NAM dehydronorketamine (DHNK; Santa Cruz biotechnology) 2 hours prior to AIE exposure. CON groups received (i.p.) injections of saline or 50 mg/kg DHNK 2 hours prior to water gavage exposure. All rats were group housed between post-natal day 48 and 73 (adulthood). Pretreatment and gavage administration occurred during PND 28, 29, 30, 31, 34, 35, 37, 39, 40, 41, 44, 45, 47, and 48. Subjects were not exposed to DHNK any time after PND48.

[3] = target: α7 nicotinic receptor (Homo sapiens, UniProt P36544); conditions: cited from earlier work
[4] = system: alcohol preferring (P) rats; assay: Exposure to α7 agonist AR-R17779 during early adolescence, adult EtOH consumption (acquisition and relapse drinking); assay type: in vivo, rat; conditions: for duration of alcohol deprivation effect (ADE): vs baseline intake
Description: as §1
Effects of exposure to the α7 agonist AR-R17779 during early adolescence on adult EtOH consumption. Adolescent male (n=14) and female (n=13) alcohol preferring (P) rats were exposed to the α7 nicotinic receptor agonist, AR-R17779 ((2S)-2′H-spiro[4-azabicyclo[2.2.2]octane-2,5′-[1,3]oxazolidin]-2′-one) (AR; Tocris) on PND 29, 30, 33, 35, 36, and 37. The doses of AR-R17779 was 0 (saline controls), 3 or 10 mg/kg (all drugs administered i.p.). […] The doses of AR employed are typical for peripheral administered studies and results in observed alterations in specific behaviors. All rats were group housed between PND 26 and 73 (adulthood). Subjects only received treatment with AR_on the days specified.
as §2

[5] = system: Wistar rats; assay: Adolescent AR-R17779 exposure, adult operant beer self-administration (acquisition, extinction, relapse); assay type: in vivo, rat
Description: as §2
Effects of exposure to the α7 agonist AR-R17779 during early adolescence on adult EtOH consumption (acquisition, maintenance, extinction, craving, and relapse). The current experiment was conducted to generalize the effects of exposure to an α7 NAchR receptor agonist during adolescence on adult alcohol consumption in non-selected (non-genetically predisposed rats). Brief exposure to AR during adolescence in Wistar rats produced similar alterations in adult beer consumption. Male and female Wistar rats were exposed to AR (0, 3, or 10 mg/kg) on PND 29, 30, 33, 35, 36, and 37 (no alcohol exposure during adolescence). On PND 75 rats were allowed to self-administer beer (9% IPA) under operant conditions.

[6] = system: female P rats; assay: Pretreatment with α7 NAM SB-277011-A prior to adolescent binge alcohol exposure (ABAE), adult EtOH consumption; assay type: in vivo, rat
Method: Effects of exposure to the α7 negative allosteric modulator (NAM) SB-277011-A prior to adolescence binge alcohol exposure on adult EtOH consumption. Currently, there are 3 commercially available α7 NAMs: DHNK, SB-277011-A (SB), and Butaclamol (AY-23,028). SB is also a selective D3 antagonist. Butaclamol is a typical antipsychotic that is also a non-selective dopamine receptor antagonist. Referring now to FIG. 7, the ability of SB to prevent ABAE-induced increases were assessed in adult EtOH consumption. Briefly, female P rats were exposed to the standard ABAE protocol. ABAE and CON rats were injected (i.p.) with 0 (water), 1 or 5 mg/kg SB (Sigma) 2 hours before gavage treatment. […] Statistically, there was a significant ABAE X SB Dose X Day interaction term (F12,244=2.3; p<0.01). Therefore, the data sets indicate that despite having different off-target sites of activation (SB-D3 antagonist), both α7 NAMs prevented the deleterious consequences of ABAE.

[7] = 3 and 10 mg/kg AR during adolescence
[8] = 1 or 5 mg/kg SB i.p. 2 hours before gavage

Sequence of α7 nicotinic receptor (P36544 23-502): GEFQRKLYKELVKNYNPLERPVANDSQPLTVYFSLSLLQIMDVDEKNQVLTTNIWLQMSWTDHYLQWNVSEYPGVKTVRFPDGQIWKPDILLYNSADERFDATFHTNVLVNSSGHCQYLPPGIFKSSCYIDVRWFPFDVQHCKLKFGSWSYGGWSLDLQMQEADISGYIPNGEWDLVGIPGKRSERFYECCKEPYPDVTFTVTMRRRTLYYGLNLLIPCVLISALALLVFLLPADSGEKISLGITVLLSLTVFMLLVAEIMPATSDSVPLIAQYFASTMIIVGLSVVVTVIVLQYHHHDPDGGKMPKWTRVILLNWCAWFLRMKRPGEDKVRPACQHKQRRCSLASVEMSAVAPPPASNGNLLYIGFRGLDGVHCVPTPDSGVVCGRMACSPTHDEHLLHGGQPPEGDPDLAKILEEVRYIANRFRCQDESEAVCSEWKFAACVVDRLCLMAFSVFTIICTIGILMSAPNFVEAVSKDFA
Sequence of α3β4 (P32297 32-505): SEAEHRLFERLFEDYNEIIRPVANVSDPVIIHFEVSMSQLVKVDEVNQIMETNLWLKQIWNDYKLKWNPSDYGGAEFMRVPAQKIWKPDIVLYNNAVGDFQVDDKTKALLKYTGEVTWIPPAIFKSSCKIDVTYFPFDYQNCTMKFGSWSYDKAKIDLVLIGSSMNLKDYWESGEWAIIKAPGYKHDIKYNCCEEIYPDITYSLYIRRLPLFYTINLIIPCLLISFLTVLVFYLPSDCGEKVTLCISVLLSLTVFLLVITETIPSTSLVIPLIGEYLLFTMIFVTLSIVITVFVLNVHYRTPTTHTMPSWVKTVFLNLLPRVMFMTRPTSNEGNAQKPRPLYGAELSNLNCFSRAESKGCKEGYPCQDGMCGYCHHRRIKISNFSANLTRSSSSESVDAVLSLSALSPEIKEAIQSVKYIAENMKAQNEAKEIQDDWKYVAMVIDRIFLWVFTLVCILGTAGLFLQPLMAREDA
Sequence of α3β4 (P30926 22-498): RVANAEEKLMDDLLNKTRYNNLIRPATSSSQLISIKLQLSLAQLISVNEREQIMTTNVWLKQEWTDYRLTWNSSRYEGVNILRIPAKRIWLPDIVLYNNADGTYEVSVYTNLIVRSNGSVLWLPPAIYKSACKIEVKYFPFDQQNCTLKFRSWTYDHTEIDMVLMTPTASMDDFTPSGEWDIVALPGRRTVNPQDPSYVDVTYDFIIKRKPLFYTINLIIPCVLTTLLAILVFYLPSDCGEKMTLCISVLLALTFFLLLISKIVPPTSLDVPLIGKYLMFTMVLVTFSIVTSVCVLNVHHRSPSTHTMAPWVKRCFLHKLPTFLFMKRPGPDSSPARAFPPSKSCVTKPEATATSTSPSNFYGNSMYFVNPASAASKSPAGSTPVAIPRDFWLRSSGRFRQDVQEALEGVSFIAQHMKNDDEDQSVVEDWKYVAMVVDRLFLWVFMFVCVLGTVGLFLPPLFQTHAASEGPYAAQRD

Compound: NC1(c2ccccc2Cl)CCC=CC1=O (centres unmarked) [DHNK, 5,6-dehydronorketamine]
- IC50 [1]: > 200 µM
- effect on deleterious effects of adolescent alcohol exposure (adult alcohol intake, weeks 1-2) ([2]; P rats, 10 mg/kg DHNK i.p. 2 hours prior to AIE): blocked the deleterious effects of adolescent alcohol exposure
- effect on deleterious effects of adolescent alcohol exposure (adult alcohol intake, weeks 1-2) ([2]; P rats, 50 mg/kg DHNK i.p. 2 hours prior to AIE): blocked the deleterious effects of adolescent alcohol exposure
- adult alcohol drinking without adolescent alcohol (CON-50 mg/kg DHNK) ([2]; P rats, 50 mg/kg DHNK i.p. prior to water gavage): did not alter alcohol drinking during adulthood
- effect on AIE-enhanced relapse drinking ([2]; P rats, DHNK pretreatment): altered the enhancement in relapse drinking produced by AIE exposure
- relapse alcohol drinking vs baseline ([2]; female P rats, AIE-10 mg/kg DHNK, paired t-tests): increase in alcohol consumption (compared to baseline during the 1st re-exposure day)
- relapse alcohol drinking vs baseline ([2]; female P rats, ATE-50 mg/kg DHNK, paired t-tests): increase in alcohol consumption during the first three re-exposure days
- relapse alcohol drinking vs baseline ([2]; female P rats, CON-50 mg/kg DHNK, paired t-tests): significant increase in alcohol drinking during the 1st re-exposure day
- relapse alcohol drinking vs baseline ([2]; male P rats, AIE-10 mg/kg DHNK): increase in drinking during the 1st re-exposure day
- relapse alcohol drinking vs baseline (ADE) ([2]; male P rats, AIE-50 mg/kg): did not display an ADE
- relapse alcohol drinking vs baseline (ADE) ([2]; male P rats, CON-50 mg/kg): did not display an ADE
- effect on AIE-induced increase of adult alcohol consumption (overall) ([2]; male and female P rats, DHNK i.p. 2 hours prior to AIE): blocked the ability of adolescent alcohol exposure to increase alcohol consumption during adulthood

Compound: O=C1NC[C@@]2(CN3CCC2CC3)O1 [AR-R17779, (2S)-2′H-spiro[4-azabicyclo[2.2.2]octane-2,5′-[1,3]oxazolidin]-2′-one]
- affinity for receptors other than α7 nicotinic receptor [3]: no or minimal affinity for all other examined receptors
- duration of alcohol deprivation effect (ADE) ([4]; female P rats, 3 mg/kg AR during adolescence): 2 days
- duration of alcohol deprivation effect (ADE) ([4]; female P rats, 10 mg/kg AR during adolescence): 3 days
- adult alcohol intake, 1st week of alcohol access ([4]; female P rats, 10 mg/kg AR i.p. during early adolescence vs saline or 3 mg/kg, Tukey's b): consumed more alcohol than rats administered saline or 3 mg/kg AR during adolescence
- relapse EtOH drinking, Day 1 of EtOH re-exposure ([4]; female P rats, 10 mg/kg AR vs 3 mg/kg group): consumed more alcohol than the 3 mg/kg group
- relapse EtOH drinking, 2nd re-exposure day ([4]; female P rats, 10 mg/kg AR vs saline): consumed more alcohol than rats administered saline
- adult alcohol intake, 2nd week of alcohol access ([4]; female P rats, 3 and 10 mg/kg AR i.p. during early adolescence vs saline, p<0.05): 10 mg/kg>3 mg/kg>saline
- relapse EtOH drinking, re-exposure day 3 ([4]; female P rats, 3 and 10 mg/kg AR vs saline): 10 mg/kg>3 mg/kg>Saline
- relapse EtOH drinking (FIG. 3, +) ([4]; female and male P rats, 10 mg/kg during adolescence vs saline): consumed more alcohol than saline controls
- average alcohol intake in adulthood (FIG. 2, #) ([4]; female and male rats, 3 mg/kg during adolescence): 3 mg/kg>saline
- average alcohol intake in adulthood (FIG. 2, *) ([4]; female and male rats, 10 mg/kg during adolescence): 10 mg/kg AR-R17779>3 mg/kg and saline
- ADE, EtOH intake vs baseline ([4]; male P rats, 3 mg/kg AR during adolescence, p<0.05): elevated levels of EtOH intake during the 1st re-exposure day compared to baseline intake
- ADE, EtOH intake vs baseline ([4]; male P rats, 10 mg/kg AR during adolescence): Evidence of an ADE was detected during re-exposure days 1-3
- adult alcohol intake, 1st and 2nd weeks of alcohol access ([4]; male P rats, 10 mg/kg AR i.p. during early adolescence vs saline or 3 mg/kg, p<0.05): consumed more alcohol than rats administered saline or 3 mg/kg AR
- relapse EtOH drinking, group differences during re-exposure days 1-4 ([4]; male P rats, AR 0, 3, 10 mg/kg, p>0.083): no significant group differences
- beer self-administration during adulthood (FIG. 4, *) [5, 7]: 3 and 10 AR>saline
- beer self-administration during adulthood (FIG. 4, +) [5, 7]: 10>3>saline
- acquisition of alcohol self-administration, sessions 7-14 ([5]; AR 3 or 10 mg/kg during adolescence, beer (9% IPA), operant): acquired alcohol self-administration faster than controls
- rate of extinction learning ([5]; adolescent exposure, no alcohol available): retarded the rate of extinction learning
- relapse drinking (individual ANOVAs) ([5]; alcohol re-exposure, p values<0.001): enhanced relapse drinking
- lever responding, extinction session 3 ([5]; highest dose of AR-R17779): responded more on the lever previously associated with delivery of alcohol than all other groups
- alcohol consumed during re-exposure sessions (post-hoc) ([5]; vs saline controls): consumed more alcohol than control rats (saline) during the initial 3 re-exposure sessions
- lever responding, extinction sessions 1 and 2 ([5]; vs saline treated rats, Tukey's b): responded more on the lever previously associated with the delivery of alcohol

Compound: N#Cc1ccc2c(c1)CCN(CC[C@H]1CC[C@H](NC(=O)c3ccnc4ccccc34)CC1)C2 [SB-277011-A, N-{trans-4-[2-(6-cyano-3,4-dihydroisoquinolin-2(1H)-yl)ethyl]cyclohexyl}quinoline-4-carboxamide]
- relapse EtOH drinking, ABAE vs corresponding CON group (FIG. 8, +) ([6]; 1 mg/kg SB prior to ABAE): consumed more alcohol than corresponding CON group
- adult EtOH consumption (FIG. 7, +) ([6]; 1 mg/kg vs 5 mg/kg SB): 1 mg/kg>5 mg/kg SB rats
- adult EtOH consumption (FIG. 7, #) ([6]; 5 mg/kg SB vs water-ABAE and 1 mg/kg SB): water-ABAE and 1 mg/kg SB>5 mg/kg SB rats
- adult EtOH consumption (FIG. 7, *) ([6]; 1 and 5 mg/kg SB vs water-ABAE): water-ABAE rats >1 mg and 5 mg/kg SB rats
- effect on ABAE-induced enhancement of EtOH consumption during relapse (ADE) [6, 8]: prevented ABAE-induced enhancement of EtOH consumption during relapse (ADE) conditions
- effect on ABAE-induced increase in EtOH consumption during acquisition [6, 8]: prevented the ABAE-induced increase in EtOH consumption during acquisition

— patent US20220378777A1, “COMPOSITIONS AND METHODS FOR TREATING ALCOHOL USE DISORDER OR A RELATED CONDITION THEREOF” (priority 2019, published 2022)
